Experimental data reported in patent US12629374B2, “Antimalarial agents” (Merck Sharp & Dohme LLC, priority 2020, dated 2026).
Where two headings read alike, the source gives them in different places.

System: ring stage parasites
Experiment: Parasite growth potency assay, 72 hours, LDH readout
Format: cell-based
Settings: parasite growth measured by LDH assay after 72 hours at 37° C., 0.7% rings, 2% haematocrit, read-out: EC50
Outline: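 Parasite growth was quantified by LDH assay after a −80 °C freeze-thaw. Before that, compound was incubated for 72 h at 37 °C under humidified gas with ring-stage cultures adjusted to 0.7% parasitemia and 2% haematocrit in serum- and albumax-supplemented RPMI-Hepes.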

| Structure (SMILES) | EC50 (72 h) | EC50 |
| --- | --- | --- |
| CCC1(CC)CC(=O)N(Cc2cccc(C(=O)N[C@H]3CC(C)(C)Oc4c3ccc(F)c4F)c2)C(=N)N1 (stereo in doubt) [Example 117, [1-[[3-[(7,8-difluoro-2,2-dimethyl-chroman-4-yl)carbamoyl]phenyl]methyl]-4,4-diethyl-6-oxo-hexahydropyrimidin-2-ylidene]ammonium; 2,2,2-trifluoroacetate] | 1.5 nM | – |
| CCC1(CC)CC(=O)N(C(CCOC)c2ccc(C(F)(F)F)c(C(=O)N[C@@H]3c4ccccc4OC[C@H]3O)c2)C(=N)N1 (stereo partly drawn) [Example 243, 5-[1-(4,4-diethyl-2-imino-6-oxo-hexahydropyrimidin-1-yl)-3-methoxy-propyl]-N-[(3S,4R)-3-hydroxychroman-4-yl]-2-(trifluoromethyl)benzamide] | 6.4 nM | – |
| CCC1(CC)CC(=O)N(Cc2cccc(C(=O)N[C@@H]3c4ccccc4OCC3O)c2)C(=N)N1 (stereo in doubt) [Example 126B, 3-[(4,4-diethyl-2-imino-6-oxo-hexahydropyrimidin-1-yl)methyl]-N-(3-hydroxychroman-4-yl)benzamide] | 19.4 nM | – |
| CCC1(CC)CC(=O)N(C(CC(OC)C(F)(F)F)c2cccc(C(=O)N[C@@H]3c4ccccc4C[C@H]3O)c2)C(=N)N1 (single isomer, unassigned) [Example 238C] | – | 2.32 nM |
| CCC1(CC)CC(=O)N([C@@H](CCOC)c2cccc(C(=O)N[C@H]3C[C@H](C(F)(F)F)Oc4ccccc43)c2)C(=N)N1 [Example 132A, [[(2R,4S)-2-(trifluoromethyl)chroman-4-yl]carbamoyl]phenyl]propyl]-6-oxo-hexahydropyrimidin-2-ylidene]ammonium; 2,2,2-trifluoroacetate] | 59 nM | – |
| CCC1(CC)CC(=O)N([C@H](CCOC(F)F)c2cccc(C(=O)N[C@H]3CCOc4ccccc43)c2)C(=N)N1 [Example 164, [1-[1-[3-[[(4S)-chroman-4-yl]carbamoyl]phenyl]-3-(difluoromethoxy)propyl]-4,4-diethyl-6-oxo-hexahydropyrimidin-2-ylidene]ammonium; 2,2,2-trifluoroacetate] | 0.9 nM | – |
| CCC1(CC)CC(=O)N([C@H](CCOC)c2cccc(C(=O)N[C@H]3c4ccccc4OC3(C)C)c2)C(=N)N1 [Example 181B, [1-[(1R)-1-[3-[(2,2-dimethyl-3H-benzofuran-3-yl)carbamoyl]phenyl]-3-methoxy-propyl]-4,4-diethyl-6-oxo-hexahydropyrimidin-2-ylidene]ammonium; 2,2,2-trifluoroacetate] | 71.2 nM | – |
| CCC1(CC)CC(=O)N(Cc2cccc(C(=O)N[C@@H]3c4cc(F)ccc4C[C@H]3O)c2)C(=N)N1 (stereo in doubt) [Example 199, [4,4-diethyl-1-[[3-[(6-fluoro-2-hydroxy-indan-1-yl)carbamoyl]phenyl]methyl]-6-oxo-hexahydropyrimidin-2-ylidene]ammonium; 2,2,2-trifluoroacetate] | 6.2 nM | – |
| CC(C)[C@]1(C)CC(=O)N([C@@H](c2cccc(C(=O)N[C@@H]3c4ccccc4C[C@H]3O)c2)C23CC(C2)C3)C(=N)N1 [Example 28, [(4S)-1-[1-bicyclo[1.1.1]pentanyl-[3-[[(1R,2R)-2-hydroxyindan-1-yl]carbamoyl]phenyl]methyl]-4-isopropyl-4-methyl-6-oxo-hexahydropyrimidin-2-ylidene]ammonium; 2,2,2-trifluoroacetate] | 1.1 nM | – |
| CCC1(COC)CC(=O)N(Cc2cccc(C(=O)N[C@@H]3c4ccccc4C[C@H]3O)c2)C(=N)N1 (stereo partly drawn) [Example 95, [4-ethyl-1-[[3-[[(1R,2R)-2-hydroxyindan-1-yl]carbamoyl]phenyl]methyl]-4-(methoxymethyl)-6-oxo-hexahydropyrimidin-2-ylidene]ammonium; 2,2,2-trifluoroacetate] | 43.2 nM | – |
| CCC1(CC)CC(=O)N([C@H](CCOC)c2cccc(C(=O)N[C@@H]3c4ccccc4CC3(O)C(F)(F)F)c2)C(=N)N1 (single isomer, unassigned) [Example 204A] | – | 21 nM |
